Measurements published in patent publication US11312675B2, “Crystalline polymorphs of 1,6-dibromo-1,6-dideoxy-dulcitol” (Targent, LLC, priority 2015, dated 2022).

Assays:
[1] = reported in the literature; cited from earlier work
[2] = Kellner et al., Nature (1967); cited from earlier work
[3] = Thermogravimetric analysis (TGA); assay type: physicochemical; settings: heating from 25° C. to 450° C. at 10K/min
Experimental: The analysis was carried out using the Mettler Toledo Stare System with the following parameters. The sample was weighed in an aluminum pan hermetically sealed with an aluminum pierced cover. The analysis was performed heating the sample from 25° C. to 450° C. at 10K/min.

[4] = Stability tests (storage, analysed by XRPD); assay type: physicochemical
Experimental: The sample was stored in the following conditions (a) 25° C. and 60% RH for 7 days and (b) 60° C. and 75% RH for 3 days. The samples were analyzed after the test by XRPD.

Row | Structure (SMILES) | solubility [1] | antitumor effect [2] | degradation of the sample (TGA profile) [3] | stability of the crystalline form (XRPD after storage) ([4]; 25° C. and 60% RH for 7 days) | stability of the crystalline form (XRPD after storage) ([4]; 60° C. and 75% RH for 3 days)
1 | O[C@H]([C@H](O)[C@@H](O)CBr)[C@H](O)CBr [DBD, 1,6-dibromo-1,6-dideoxy-dulcitol] | poorly soluble | selective a vigorous antitumor effect |  |  | 
2 | O[C@H]([C@H](O)[C@@H](O)CBr)[C@H](O)CBr [crystalline DBD polymorph, 1,6-dibromo-1,6-dideoxy-dulcitol] |  |  | approximately 170 °C | stable | stable
